Data published in patent US9890166B2, “Imidazopyrrolidine derivatives and their use in the treatment of disease” (NOVARTIS AG, priority 2013, dated 2018).

Key:
BRD4 (His-Brd4(44-477)) = BRD4 (His-Brd4(44-477)) (Homo sapiens (Human), UniProt O60885); experiment: TR-FRET in-vitro binding assay for BRD4; conditions: single determination or n ≧ 2 independent determinations, read-out: Biochemical IC50 BRD4
Method in brief: (§1)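 His-tagged BRD2, BRD3 and BRD4 fragments tested by TR-FRET at 8 compound concentrations, with DMSO stocks at 10 mM. Read on EnVision after 35 min incubation at 30° C.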

BRD2 (His-Brd2(60-472)) = BRD2 (His-Brd2(60-472)) (Homo sapiens (Human), UniProt P25440); experiment: TR-FRET in-vitro binding assay for BRD2; conditions: single determination or n ≧ 2 independent determinations, read-out: Biochemical IC50 BRD2
Chain of BRD2 (His-Brd2(60-472)) (P25440 60-472): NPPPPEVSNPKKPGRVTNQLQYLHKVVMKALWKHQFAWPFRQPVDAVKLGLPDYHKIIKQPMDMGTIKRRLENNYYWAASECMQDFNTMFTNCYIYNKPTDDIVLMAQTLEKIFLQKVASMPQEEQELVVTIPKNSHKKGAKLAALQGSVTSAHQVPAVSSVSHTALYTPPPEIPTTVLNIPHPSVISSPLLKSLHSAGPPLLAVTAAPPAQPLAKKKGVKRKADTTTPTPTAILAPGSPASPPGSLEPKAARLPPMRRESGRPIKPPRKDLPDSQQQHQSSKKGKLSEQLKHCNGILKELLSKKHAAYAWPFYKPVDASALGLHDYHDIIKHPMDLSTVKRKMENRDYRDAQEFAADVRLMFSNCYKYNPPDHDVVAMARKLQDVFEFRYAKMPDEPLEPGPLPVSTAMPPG
Method in brief: as §1

BRD3 (His-Brd3(20-477)) = BRD3 (His-Brd3(20-477)) (Homo sapiens (Human), UniProt Q15059); experiment: TR-FRET in-vitro binding assay for BRD3; conditions: single determination or n ≧ 2 independent determinations, read-out: Biochemical IC50 BRD3
Chain of BRD3 (His-Brd3(20-477)) (Q15059 20-477): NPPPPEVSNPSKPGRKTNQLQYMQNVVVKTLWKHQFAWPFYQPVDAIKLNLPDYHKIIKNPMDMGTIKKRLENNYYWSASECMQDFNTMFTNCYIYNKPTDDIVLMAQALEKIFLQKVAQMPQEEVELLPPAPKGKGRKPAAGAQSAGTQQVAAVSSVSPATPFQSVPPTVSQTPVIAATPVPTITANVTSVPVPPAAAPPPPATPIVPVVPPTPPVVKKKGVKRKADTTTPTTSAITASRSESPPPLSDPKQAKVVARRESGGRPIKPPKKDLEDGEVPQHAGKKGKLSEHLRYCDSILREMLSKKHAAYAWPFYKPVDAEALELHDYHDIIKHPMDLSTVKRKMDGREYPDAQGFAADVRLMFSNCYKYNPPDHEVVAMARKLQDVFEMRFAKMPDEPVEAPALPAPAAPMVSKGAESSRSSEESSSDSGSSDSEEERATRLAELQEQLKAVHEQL
Method in brief: as §1

[1] = biological target: CREBBP bromodomain (His-CREBBP(1081-1197)) (Homo sapiens (Human), UniProt Q92793); experiment: AlphaScreen in-vitro binding assay for CREBBP; conditions: single determination or n ≧ 2 independent determinations, read-out: Biochemical IC50 CREBBP
Chain of CREBBP bromodomain (His-CREBBP(1081-1197)) (Q92793 1081-1197): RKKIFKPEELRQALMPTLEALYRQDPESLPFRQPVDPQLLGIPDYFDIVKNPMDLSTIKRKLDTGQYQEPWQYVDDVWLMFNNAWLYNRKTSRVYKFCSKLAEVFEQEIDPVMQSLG
Method in brief: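 Detection used nickel-chelate acceptor plus streptavidin donor AlphaScreen beads, 1 h room temperature. Percent inhibition fitted by non-linear regression to IC50.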

THP-1 cells = experiment: Cell growth inhibition assay (CellTiter-Glo), THP-1; conditions: for GI50: Homo sapiens, THP-1, read-out: THP-1 GI50; for THP-1 TGI: THP-1 cells, total growth inhibition, CellTiter-Glo;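 as to all read-outs here: viability read as cellular ATP luminescence after 4 days, 3-fold dilution series from 10 µM, DMSO vehicle-treated cells taken as 100%, cell-free medium wells as −100%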
K-562 cells = experiment: Cell growth inhibition assay (CellTiter-Glo), K-562; conditions: for GI50: Homo sapiens, K562, read-out: K-562 GI50; for K-562 TGI: K-562 cells, total growth inhibition, CellTiter-Glo;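 as to all read-outs here: cellular ATP measured by luminescence after 4 days of exposure, 3-fold dilution series from 10 µM, DMSO vehicle-treated cells define 100%, cell-free medium wells −100%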
MV-4-11 cells = experiment: Cell growth inhibition assay (CellTiter-Glo), MV-4-11; conditions: for GI50: Homo sapiens, MV4-11, read-out: MV-4-11 GI50; for MV-4-11 TGI: MV-4-11 cells, total growth inhibition, CellTiter-Glo;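 as to all read-outs here: cellular ATP luminescence after 4 days, 3-fold dilution series from 10 µM top dose, vehicle (0.1% DMSO) set to 100%, cell-free medium set to −100%, day 0 corrected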

| SMILES | IC50 (BRD4 (His-Brd4(44-477))) [nM] | IC50 (BRD2 (His-Brd2(60-472))) [nM] | IC50 (BRD3 (His-Brd3(20-477))) [nM] | IC50 [1] [µM] | GI50 (THP-1 cells) [nM] | THP-1 TGI (THP-1 cells) [µM] | GI50 (K-562 cells) [nM] | K-562 TGI (K-562 cells) [µM] | GI50 (MV-4-11 cells) [nM] | MV-4-11 TGI (MV-4-11 cells) [µM] |
| --- | --- | --- | --- | --- | --- | --- | --- | --- | --- | --- |
| COc1ccc(-c2nc3c(n2C(C)C)C(c2ccc(Cl)cc2)N(c2cc(OC)c4nnn(C)c4c2)C3=O)cn1 (centres unmarked) [Example 113, 6-(4-chlorophenyl)-1-isopropyl-5-(4-methoxy-1-methyl-1H-benzo[d][1,2,3]triazol-6-yl)-2-(6-methoxypyridin-3-yl)-5,6-dihydropyrrolo[3,4-d]imidazol-4(1H)-one] | 200 | 100 | 102 | > 37 | 171 | 0.3595 | 358 | >10 | 125 | 0.186 |
| COc1ccc(-c2nc3c(n2C(C)C)[C@@H](c2ccc(Cl)cc2)N(c2cc(OC)c4nnn(C)c4c2)C3=O)cn1 [Example 114, (R)-6-(4-chlorophenyl)-1-isopropyl-5-(4-methoxy-1-methyl-1H-benzo[d][1,2,3]triazol-6-yl)-2-(6-methoxypyridin-3-yl)-5,6-dihydropyrrolo[3,4-d]imidazol-4(1H)-one] | 38 | 87 | 100 | 12.9 | 118 | 0.3005 | 268 | >10 | 77.7 | 0.1585 |
| COc1ncc(-c2nc3c([nH]2)C(c2ccc(Cl)cc2)N(c2cc(C)c4nnc(C)n4c2)C3=O)c(OC)n1 (centres unmarked) [Example 124, 6-(4-chlorophenyl)-2-(2,4-dimethoxypyrimidin-5-yl)-5-(3,8-dimethyl-[1,2,4]triazolo[4,3-a]pyridin-6-yl)-5,6-dihydropyrrolo[3,4-d]imidazol-4(1H)-one] | 38 | 94 | 39 | 3.8 | 66.3 | 0.1345 | 257 | >10 | 56.2 | 0.09675 |
| COc1ccc(-c2nc3c([nH]2)[C@@H](c2ccc(Cl)cc2)N(c2cc(OC)c4nnc(C)n4c2)C3=O)cn1 [Example 126, (R)-6-(4-chlorophenyl)-5-(8-methoxy-3-methyl-[1,2,4]triazolo[4,3-a]pyridin-6-yl)-2-(6-methoxypyridin-3-yl)-5,6-dihydropyrrolo[3,4-d]imidazol-4(1H)-one] | 104 | 385 | 283 | 25.9 | 947 | 1.7 | 2270 | >10 | 408 | 0.592 |
| COc1ncc(-c2nc3c([nH]2)[C@@H](c2ccc(Cl)cc2)N(c2cc(OC)c4nnc(C)n4c2)C3=O)c(OC)n1 [Example 128, (R)-6-(4-chlorophenyl)-2-(2,4-dimethoxypyrimidin-5-yl)-5-(8-methoxy-3-methyl-[1,2,4]triazolo[4,3-a]pyridin-6-yl)-5,6-dihydropyrrolo[3,4-d]imidazol-4(1H)-one] | 84.5 | 220 | 136 | 16.4 | 371 | 0.947 | 1230 | >10 | 188 | 0.3505 |
| COc1ccc(-c2nc3c([nH]2)[C@@H](c2ccc(Cl)cc2)N(c2cc(C)c4nnc(C)n4c2)C3=O)cn1 [Example 129, (R)-6-(4-chlorophenyl)-5-(3,8-dimethyl-[1,2,4]triazolo[4,3-a]pyridin-6-yl)-2-(6-methoxypyridin-3-yl)-5,6-dihydropyrrolo[3,4-d]imidazol-4(1H)-one] | 1840 | 4700 | 2320 | > 37 | 662 | 1.08 | 1070 | >10 | 209 | 0.343 |
| Cc1cc(N2C(=O)c3nc(N4CCOCC4)n(C)c3C2c2ccc(Cl)cc2)cn(C)c1=O (centres unmarked) [Example 130, 6-(4-chlorophenyl)-5-(1,5-dimethyl-6-oxo-1,6-dihydropyridin-3-yl)-1-methyl-2-morpholino-5,6-dihydropyrrolo[3,4-d]imidazol-4(1H)-one] | 180 | 230 | 160 | 2.4 | 526 | 1.21 | 1940 | >10 | 167 | 0.3905 |
| Cc1cc(N2C(=O)c3nc(C)n(C(C)C)c3C2c2ccc(Cl)cc2)cn2c(C(F)F)nnc12 (centres unmarked) [Example 131, 6-(4-chlorophenyl)-5-(3-(difluoromethyl)-8-methyl-[1,2,4]triazolo[4,3-a]pyridin-6-yl)-1-isopropyl-2-methyl-5,6-dihydropyrrolo[3,4-d]imidazol-4(1H)-one] | 28 | 49 | 31 | > 37 | 23.8 | 0.055 | 87.5 | >10 | 16.4 | 0.0295 |
| COc1ncccc1-c1nc2c(n1C(C)C)C(c1ccc(Cl)cc1)N(c1cc(C)c3nnc(C(F)F)n3c1)C2=O (centres unmarked) [Example 132, 6-(4-chlorophenyl)-5-(3-(difluoromethyl)-8-methyl-[1,2,4]triazolo[4,3-a]pyridin-6-yl)-1-isopropyl-2-(2-methoxypyridin-3-yl)-5,6-dihydropyrrolo[3,4-d]imidazol-4(1H)-one] | < 11 | 19 | 12 | 27.5 | 12.6 | 0.03315 | 51.8 | >10 | 9.44 | 0.0189 |
| COc1ncccc1-c1nc2c([nH]1)C(c1ccc(Cl)cc1)N(c1cc(C)c3nnn(C)c3c1)C2=O (centres unmarked) [Example 133, 6-(4-chlorophenyl)-5-(3,7-dimethyl-3H-benzo[d][1,2,3]triazol-5-yl)-2-(2-methoxypyridin-3-yl)-5,6-dihydropyrrolo[3,4-d]imidazol-4(1H)-one] | 23 | 35 | 19.5 | 5.4 | 65.6 | 0.1375 | 142 | >10 | 35.1 | 0.0608 |
| Cc1cc(N2C(=O)c3nc(C4=CCOCC4)[nH]c3C2c2ccc(Cl)cc2)cn(C)c1=O (centres unmarked) [Example 134, 6-(4-chlorophenyl)-2-(3,6-dihydro-2H-pyran-4-yl)-5-(1,5-dimethyl-6-oxo-1,6-dihydropyridin-3-yl)-5,6-dihydropyrrolo[3,4-d]imidazol-4(1H)-one] | 38 | 80 | 35 | 1.68 | 120 | 0.399 | 610 | >10 | 72.4 | 0.141 |
| Cc1cc(N2C(=O)c3nc(C4=CCN(C)CC4)[nH]c3C2c2ccc(Cl)cc2)cn(C)c1=O (centres unmarked) [Example 135, 6-(4-chlorophenyl)-5-(1,5-dimethyl-6-oxo-1,6-dihydropyridin-3-yl)-2-(1-methyl-1,2,3,6-tetrahydropyridin-4-yl)-5,6-dihydropyrrolo[3,4-d]imidazol-4(1H)-one] | 31 | 53 | 37 | 3.85 | 265 | 0.964 | 806 | >10 | 64.9 | 0.1115 |
| COc1ccc(-c2nc3c(n2C(C)C)C(c2ccc(Cl)cc2)N(c2cc(C)c4nnn(C)c4n2)C3=O)cn1 (centres unmarked) [Example 138, 6-(4-chlorophenyl)-5-(3,7-dimethyl-3H-[1,2,3]triazolo[4,5-b]pyridin-5-yl)-1-isopropyl-2-(6-methoxypyridin-3-yl)-5,6-dihydropyrrolo[3,4-d]imidazol-4(1H)-one] | 11 | 26 | 11 | > 37 | 9.37 | 0.0236 | 37.2 | >10 | 7.97 | 0.013 |
| Cc1nc2c([nH]1)C(c1ccc(Cl)cc1)N(c1cc(C)c3nnc(C(F)F)n3c1)C2=O (centres unmarked) [Example 139, 6-(4-chlorophenyl)-5-(3-(difluoromethyl)-8-methyl-[1,2,4]triazolo[4,3-a]pyridin-6-yl)-2-methyl-5,6-dihydropyrrolo[3,4-d]imidazol-4(1H)-one] | 32.5 | 86 | 42 | > 37 | 40.7 | 0.1155 | 214 | >10 | 57.5 | 0.0992 |
